Reference: patent publication US9469650B2, “Melampomagnolide B derivatives” (BOARD OF TRUSTEES OF THE UNIVERSITY OF ARKANSAS, priority 2013, dated 2016)

Legend:
[1] = tested on: SN12C; experiment: panel of 60 human tumor cell lines, growth inhibition (Renal Cancer); settings: Homo sapiens; for CC50: read-out: LC50; for IC (TGI): read-out: TGI
[2] = tested on: OVCAR-5; experiment: panel of 60 human tumor cell lines, growth inhibition (Ovarian Cancer); settings: Homo sapiens; for GI50: OVCAR-5; for CC50: OVCAR-5, read-out: LC50; for IC (TGI): OVCAR-5, read-out: TGI
[3] = tested on: HCC-2998; experiment: panel of 60 human tumor cell lines, growth inhibition (Colon Cancer); settings: Homo sapiens; for GI50: HCC 2998; for CC50: HCC 2998, read-out: LC50; for IC (TGI): HCC 2998, read-out: TGI
[4] = tested on: PC-3; experiment: panel of 60 human tumor cell lines, growth inhibition (Prostate Cancer); settings: Homo sapiens; for GI50: PC-3; for CC50: PC-3, read-out: LC50; for IC (TGI): PC-3, read-out: TGI
[5] = tested on: LOX IMVI; experiment: panel of 60 human tumor cell lines, growth inhibition (Melanoma); settings: Homo sapiens; for CC50: read-out: LC50; for IC (TGI): read-out: TGI
[6] = tested on: MDA-MB-231/ATCC; experiment: panel of 60 human tumor cell lines, growth inhibition (Breast Cancer); settings: Homo sapiens; for GI50: MDA-MB-231; for CC50: MDA-MB-231, read-out: LC50; for IC (TGI): MDA-MB-231, read-out: TGI
[7] = tested on: SNB-19; experiment: panel of 60 human tumor cell lines, growth inhibition (CNS Cancer); settings: Homo sapiens; for GI50: SNB-19; for CC50: SNB-19, read-out: LC50; for IC (TGI): SNB-19, read-out: TGI
[8] = tested on: A549/ATCC; experiment: panel of 60 human tumor cell lines, growth inhibition (Non-Small Cell Lung Cancer); settings: Homo sapiens; for CC50: A549, read-out: LC50
[9] = tested on: A498; experiment: panel of 60 human tumor cell lines, growth inhibition (Renal Cancer); settings: Homo sapiens; for GI50: A498; for CC50: A498, read-out: LC50; for IC (TGI): A498, read-out: TGI
[10] = tested on: SF-295; experiment: panel of 60 human tumor cell lines, growth inhibition (CNS Cancer); settings: Homo sapiens; for GI50: SF-295; for CC50: SF-295, read-out: LC50; for IC (TGI): SF-295, read-out: TGI
[11] = tested on: HOP-92; experiment: panel of 60 human tumor cell lines, growth inhibition (Non-Small Cell Lung Cancer); settings: Homo sapiens; for CC50: HOP-92, read-out: LC50; for IC (TGI): HOP-92, read-out: TGI
[12] = tested on: HOP-62; experiment: as above; settings: Homo sapiens; for GI50: HOP-62; for CC50: HOP-62, read-out: LC50; for IC (TGI): HOP-62, read-out: TGI
[13] = tested on: NCI-H522; experiment: as above; settings: Homo sapiens; for GI50: NCI-H522; for CC50: NCI-H522, read-out: LC50; for IC (TGI): NCI-H522, read-out: TGI
[14] = tested on: IGROV1; experiment: panel of 60 human tumor cell lines, growth inhibition (Ovarian Cancer); settings: Homo sapiens; for GI50: IGROV-1; for CC50: IGROV-1, read-out: LC50; for IC (TGI): IGROV-1, read-out: TGI
[15] = tested on: SF-268; experiment: panel of 60 human tumor cell lines, growth inhibition (CNS Cancer); settings: Homo sapiens; for GI50: SF-268; for CC50: SF-268, read-out: LC50; for IC (TGI): SF-268, read-out: TGI
[16] = tested on: U251; experiment: as above; settings: Homo sapiens; for GI50: U-251; for CC50: U-251, read-out: LC50; for IC (TGI): U-251, read-out: TGI
[17] = tested on: SW-620; experiment: panel of 60 human tumor cell lines, growth inhibition (Colon Cancer); settings: Homo sapiens; for GI50: SW-620, SW-620; for CC50: SW-620, read-out: LC50; for IC (TGI): SW-620, read-out: TGI
[18] = tested on: CAKI-1; experiment: panel of 60 human tumor cell lines, growth inhibition (Renal Cancer); settings: Homo sapiens; for GI50: CAKI-1; for CC50: CAKI-1, read-out: LC50; for IC (TGI): CAKI-1, read-out: TGI
[19] = tested on: UACC-257; experiment: panel of 60 human tumor cell lines, growth inhibition (Melanoma); settings: for GI50 / CC50: Homo sapiens; for GI50 / Percent Growth / TGI: UACC-257; for CC50: UACC-257, read-out: LC50

For `C=C1C(=O)O[C@H]2[C@H]1CC/C(COC(=O)Nc1n[nH]c(SC)n1)=C\CC[C@@]1(C)O[C@@H]21` [JVM 64, ((1aR,7aS,10aS,10bS,E)-1a-methyl-8-methylene-9-oxo-1a,2,3,6,7,7a,8,9,10a,10b-decahydrooxireno[2′,3′:9,10]cyclodeca[1,2-b]furan-5-yl)methyl-(5-(methylthio)-1H-1,2,4-triazol-3-yl)carbamate], the GI50 [1] was 2.9 µM, the CC50 [1] was 44.6 µM and the IC (TGI) [1] was 10.7 µM. The GI50 [2] was 2.18 µM, the CC50 [2] was 24 µM and the IC (TGI) [2] was 5.92 µM. It also gave a GI50 [3] of 7.63 µM, a CC50 [3] of 52.7 µM and an IC (TGI) [3] of 21.5 µM. The GI50 [4] was 8.51 µM, the CC50 [4] was 77 µM and the IC (TGI) [4] was 26.8 µM. It also gave a GI50 ([5]; 5-dose assay) of 1.95 µM, a GI50 ([5]; NCI five dose) of 1.95 µM and a CC50 [5] of 19.8 µM. The IC (TGI) [5] was 5.03 µM, the GI50 [6] was 2.93 µM and the CC50 [6] was 37.7 µM. For the same compound, the IC (TGI) [6] was 9.22 µM, the GI50 [7] was 15.9 µM and the CC50 [7] was greater than 100 µM. For the same compound, the IC (TGI) [7] was 40 µM, the GI50 ([8]; A549) was 4.19 µM and the CC50 [8] was 83.5 µM. The IC (TGI) ([8]; A549, read-out: TGI) was 19.9 µM, the GI50 [9] was 2.56 µM and the CC50 [9] was 27.8 µM. The IC (TGI) [9] was 7.67 µM, the GI50 [10] was 14.1 µM and the CC50 [10] was 64.1 µM. The IC (TGI) [10] was 30.1 µM, the GI50 ([11]; HOP-92, HOP-92, 5-dose assay) was 0.65 µM and the GI50 ([11]; HOP-92, HOP-92, NCI five dose) was 0.655 µM. The GI50 ([11]; HOP-92, non-small cell lung cancer cell line HOP-92) was 0.65 µM, the CC50 [11] was 20.4 µM and the IC (TGI) [11] was 3.84 µM. The GI50 [12] was 6.45 µM, the CC50 [12] was 64.9 µM and the IC (TGI) [12] was 22.3 µM. It also gave a GI50 [13] of 1.26 µM, a CC50 [13] of 7.87 µM and an IC (TGI) [13] of 3.17 µM. The GI50 [14] was 3.66 µM, the CC50 [14] was 57.8 µM and the IC (TGI) [14] was 14.2 µM. The GI50 [15] was 3.73 µM, the CC50 [15] was 52.6 µM and the IC (TGI) [15] was 14.7 µM. For the same compound, the GI50 [16] was 3.62 µM, the CC50 [16] was 51 µM and the IC (TGI) [16] was 15.8 µM. For the same compound, the GI50 ([17]; 5-dose assay) was 1.12 µM, the GI50 ([17]; NCI five dose) was 1.12 µM and the CC50 [17] was 8.49 µM. For the same compound, the IC (TGI) [17] was 3.09 µM, the GI50 [18] was 1.99 µM and the CC50 [18] was 36.6 µM. For the same compound, the IC (TGI) [18] was 6.93 µM, the GI50 [19] was 1.66 µM and the CC50 [19] was 31.9 µM. The “Percent Growth” value ([19]; Log10 Concentration −4.0) was −80%, the “Percent Growth” value ([19]; Log10 Concentration −5.0) was −20% and the “Percent Growth” value ([19]; Log10 Concentration −6.0) was 70%. The “Percent Growth” value ([19]; Log10 Concentration −7.0) was 93%, the “Percent Growth” value ([19]; Log10 Concentration −8.0) was 102% and the TGI ([19]; NCI five dose) was 6.02E−6.
`C=C1C(=O)O[C@H]2[C@H]1CC/C(COC(=O)OCCCN1CCCCC1)=C\CC[C@@]1(C)O[C@@H]21` [JVM 2-26] was tested, and the GI50 [1] was 8.41 µM, the CC50 [1] was 55.2 µM and the IC (TGI) [1] was 22.7 µM. For the same compound, the GI50 [2] was 10.1 µM, the CC50 [2] was 50.9 µM and the IC (TGI) [2] was 22.7 µM. For the same compound, the GI50 [3] was 14.4 µM, the CC50 [3] was 60.1 µM and the IC (TGI) [3] was 19.4 µM. The GI50 [4] was 12.7 µM, the CC50 [4] was 56.2 µM and the IC (TGI) [4] was 16.7 µM. The GI50 [5] was 3.15 µM, the CC50 [5] was 37.8 µM and the IC (TGI) [5] was 11.7 µM. It also gave a GI50 [6] of 3.73 µM, a CC50 [6] of 49.4 µM and an IC (TGI) [6] of 16.2 µM. The GI50 [7] was 13.5 µM, the CC50 [7] was 56.3 µM and the IC (TGI) [7] was 27.5 µM. For the same compound, the CC50 [8] was 67.2 µM, the GI50 [9] was 10.1 µM and the CC50 [9] was 47 µM. The IC (TGI) [9] was 21.8 µM, the GI50 [10] was 15.4 µM and the CC50 [10] was 73.2 µM. The IC (TGI) [10] was 33.5 µM, the GI50 ([11]; HOP-92, HOP-92) was 1.96 µM and the CC50 [11] was 31.4 µM. For the same compound, the IC (TGI) [11] was 7.47 µM, the GI50 [12] was 15.3 µM and the CC50 [12] was 57.7 µM. For the same compound, the IC (TGI) [12] was 19.8 µM, the GI50 [13] was 1.41 µM and the CC50 [13] was 7.24 µM. For the same compound, the IC (TGI) [13] was 3.2 µM, the GI50 [14] was 13.2 µM and the CC50 [14] was 76.3 µM. It also gave an IC (TGI) [14] of 31.7 µM, a GI50 [15] of 6.14 µM and a CC50 [15] of 53.2 µM. For the same compound, the IC (TGI) [15] was 20.6 µM, the GI50 [16] was 16.7 µM and the CC50 [16] was 62.7 µM. For the same compound, the IC (TGI) [16] was 32.4 µM, the GI50 [17] was 2.23 µM and the CC50 [17] was 37.3 µM. For the same compound, the IC (TGI) [17] was 8.74 µM, the GI50 [18] was 2.19 µM and the CC50 [18] was 34.5 µM. The IC (TGI) [18] was 11.9 µM, the GI50 [19] was 5.34 µM and the CC50 [19] was 45.6 µM. The TGI [19] was 1.87E−5, the “Percent Growth” value ([19]; Log10 Concentration −4.0) was −94% and the “Percent Growth” value ([19]; Log10 Concentration −5.0) was 35%. For the same compound, the “Percent Growth” value ([19]; Log10 Concentration −6.0) was 90%, the “Percent Growth” value ([19]; Log10 Concentration −7.0) was 67% and the “Percent Growth” value ([19]; Log10 Concentration −8.0) was 91%.
